The term IC50 denotes the concentration that inhibits the measured activity by half.

Data on 24 molecules can be found in patent US9555039B2, “Piperidine derivatives and compositions for the inhibition of nicotinamide phosphoribosyltransferase (NAMPT)” (Forma TM, LLC., priority 2011, dated 2017).

Molecules are shown by their SMILES. Where two headings read alike, the source gives them in different places.

One assay has as its system A2780 cells. Nature of the assay: In-vitro cell proliferation assay (SRB, 72 hours). In kind it is cell-based. The following applies: Homo sapiens, sulforhodamine B (SRB) assay. The method, then:
In-Vitro Cell Proliferation Assay
After overnight incubation at 37° C. and 5% CO2, the compound titrations were performed in a separate dilution plate by serially diluting the compounds in DMSO to make a 1000× stock. The compounds were then further diluted to 10× final concentration in culture media, whereupon 20 μL of each dilution was added to the plated cells with controls (e.g. DMSO and blank) to make a final volume of 200 μL. The final DMSO concentration in each well was 0.1%. The plates were then incubated for 72 hours at 37° C. in a 5% CO2 incubator. The number of viable cells was then assessed using sulforhodamine B (SRB) assay. Cells were fixed at 4° C. for 1 hour with the addition of 50 μL 30% trichloroacetic acid (TCA) to make a final concentration of 6% TCA. The plates were washed four times with H2O and allowed to dry for at least 1 hour, whereupon 100 μL of a 4% SRB in 1% acetic acid solution was added to each well and incubated at room temperature for at least 30 minutes. The plates were then washed three times with 1% acetic acid, dried, and treated with 100 μL of 10 mM Tris-Base solution. The plates were then read in a microplate reader at an absorbance of 570 nm. Background was generated on a separate plate with media only.
Method for Determining % Inhibition
First, the signals from the background plate are averaged, then the background was subtracted from the test plates.
wherein x denotes the average signal of the compound-treated cells and y denotes the average signal of the DMSO-treated cells.
wherein X denotes the compound concentration 1, Y denotes the compound concentration 2, XX denotes the % inhibition at compound concentration 1 (X), and YY denotes the % inhibition at compound concentration 2 (Y).

The target of assay [1] is T1, Recombinant His-tagged NAMPT (Homo sapiens, UniProt P43490).
T1 construct: His; host or cells: E. coli
Kind of assay: Biochemical inhibition assay: NAMPT enzymatic reaction, NMN quantified by mass spectrometry. The following applies: 33 nM NAMPT, 1 μM NAM, 100 μM PRPP, 30 minutes at room temperature, read-out: Biochem IC50. As for the experimental part:
Biochemical Inhibition Assay
NAMPT Protein Purification
Recombinant His-tagged NAMPT was produced in E. coli cells, purified over a Ni column, and further purified over a size-exclusion column by XTAL Biostructures.
The NAMPT Enzymatic Reaction
The NAMPT enzymatic reactions were carried out in Buffer A (50 mM Hepes pH 7.5, 50 mM NaCl, 5 mM MgCl2, and 1 mM THP) in 96-well V-bottom plates. The compound titrations were performed in a separate dilution plate by serially diluting the compounds in DMSO to make a 100× stock. […] The compound and enzyme mix was incubated for 15 minutes at room temperature, then 10 μL of 10× substrate and co-factors in Buffer A were added to the test well to make a final concentration of 1 μM NAM, 100 μM 5-Phospho-D-ribose 1-diphosphate (PRPP), and 2.5 mM Adenosine 5′-triphosphate (ATP). The reaction was allowed to proceed for 30 minutes at room temperature, then was quenched with the addition of 11 μL of a solution of formic acid and L-Cystathionine to make a final concentration of 1% formic acid and 10 μM L-Cystathionine. Background and signal strength was determined by addition (or non-addition) of a serial dilution of NMN to a pre-quenched enzyme and cofactor mix.
A mass spectrometry-based assay was used to measure the Nampt reaction product (NMN) and the internal control (L-Cystathionine). NMN and L-Cystathionine were detected using the services of Biocius Lifesciences with the RapidFire system. In short, the NMN and L-Cystathionine are bound to a graphitic carbon cartridge in 0.1% formic acid, eluted in 30% acetonitrile buffer, and injected into a Sciex 4000 mass spectrometer. The components of the sample were ionized with electrospray ionization and the positive ions were detected. […] The fragments are quantified and the analyzed by the following method.
First the NMN signal is normalized to the L-Cystathionine signal by dividing the NMN signal by the L-Cystathionine signal for each well. The signal from the background wells are averaged and subtracted from the test plates.
Wherein x denotes the average signal of the compound treated wells and y denotes the average signal of the DMSO treated wells.
IC50s are Determined Using Excel and this Formula.
Wherein X denotes the compound concentration 1, Y denotes the compound concentration 2, XX denotes the % inhibition at compound concentration 1 (X), and YY denotes the % inhibition at compound concentration 2 (Y).

T1 sequence (P43490 whole entry): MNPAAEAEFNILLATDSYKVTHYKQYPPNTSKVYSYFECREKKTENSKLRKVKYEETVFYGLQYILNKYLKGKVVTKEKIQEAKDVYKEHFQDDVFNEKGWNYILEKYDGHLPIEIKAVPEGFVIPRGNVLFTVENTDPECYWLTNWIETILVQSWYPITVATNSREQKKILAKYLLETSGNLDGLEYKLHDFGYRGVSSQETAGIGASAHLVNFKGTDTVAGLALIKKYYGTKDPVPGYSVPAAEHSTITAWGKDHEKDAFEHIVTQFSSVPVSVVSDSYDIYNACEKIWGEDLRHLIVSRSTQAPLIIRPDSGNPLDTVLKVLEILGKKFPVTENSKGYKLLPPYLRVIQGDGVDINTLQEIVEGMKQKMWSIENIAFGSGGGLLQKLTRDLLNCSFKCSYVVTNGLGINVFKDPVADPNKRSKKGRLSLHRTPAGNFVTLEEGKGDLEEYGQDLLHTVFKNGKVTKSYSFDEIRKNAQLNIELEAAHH

Regarding `COc1cccc(C(=O)N2CCC(CCCCNC(=O)c3cc4ccncc4s3)CC2)c1` [N-(4-{1-[(3-methoxyphenyl)carbonyl]piperidin-4-yl}butyl)thieno[2,3-c]pyridine-2-carboxamide], the 50% inhibitory concentration (IC50) with A2780 cells is 11 nM; in assay [1] (2.5 mM ATP) it was 26.1 nM.
The corresponding values for `CSc1ncccc1C(=O)N1CCC(CCCCNC(=O)c2cc3ccncc3s2)CC1` [N-[4-(1-{[2-(methylsulfanyl)pyridin-3-yl]carbonyl}piperidin-4-yl)butyl]thieno[2,3-c]pyridine-2-carboxamide] are 1.4 nM and 10.1 nM.
The matching figures for `O=C(NCCCCC1CCN(C(=O)C2CCCCC2)CC1)c1cc2ccncc2s1` [N-[4-(1-cyclohexanecarbonylpiperidin-4-yl)butyl]thieno[2,3-c]pyridine-2-carboxamide]: 72.7 nM and 77.9 nM.
For the molecule `COc1cc(OC)cc(C(=O)N2CCC(CCCCNC(=O)c3cc4cnccc4[nH]3)CC2)c1` [N-(4-{1-[(3,5-dimethoxyphenyl)carbonyl]piperidin-4-yl}butyl)-1H-pyrrolo[3,2-c]pyridine-2-carboxamide], the IC50 in the assay on A2780 cells came out at 2.6 nM; in assay [1] (2.5 mM ATP) it was 74.1 nM.
The matching figures for `COc1ccc(C(=O)N2CCC(CCCCNC(=O)c3cc4cnccc4[nH]3)CC2)c(OC)c1` [N-(4-{1-[(2,4-dimethoxyphenyl)carbonyl]piperidin-4-yl}butyl)-1H-pyrrolo[3,2-c]pyridine-2-carboxamide]: 3.3 nM and 67.1 nM.
The matching figures for `O=C(NCCCCC1CCN(C(=O)c2csc(-c3cccnc3)n2)CC1)c1cc2ccncc2s1` [N-[4-(1-{[2-(pyridin-3-yl)-1,3-thiazol-4-yl]carbonyl}piperidin-4-yl)butyl]thieno[2,3-c]pyridine-2-carboxamide]: 85.3 nM and 70.6 nM.
For `O=C(NCCCCC1CCN(C(=O)c2ccccc2)CC1)c1cc2ccncc2s1` [N-[4-(1-benzoylpiperidin-4-yl)butyl]thieno[2,3-c]pyridine-2-carboxamide], the IC50 in the assay on A2780 cells came to 1.2 nM; in assay [1] ([…] ATP), 6.3 nM.
Regarding `CC(=O)N1CCC(C(=O)N2CCC(CCCCNC(=O)c3ccc4nccn4c3)CC2)CC1` [N-(4-{1-[(1-acetylpiperidin-4-yl)carbonyl]piperidin-4-yl}butyl)imidazo[1,2-a]pyridine-6-carboxamide], the IC50 in the assay on A2780 cells is 27.8 nM; in assay [1] (2.5 mM ATP), 39.6 nM.
The matching figures for `O=C(NCCCCC1CCN(C(=O)c2ccccn2)CC1)c1ccc2nccn2c1` [N-(4-{1-[(pyridin-2-yl)carbonyl]piperidin-4-yl}butyl)imidazo[1,2-a]pyridine-6-carboxamide]: 13.5 nM and 36.4 nM.
The matching figures for `COc1ccc(C(=O)N2CCC(CCCCNC(=O)c3cc4cnccc4[nH]3)CC2)cc1` [N-(4-{1-[(4-methoxyphenyl)carbonyl]piperidin-4-yl}butyl)-1H-pyrrolo[3,2-c]pyridine-2-carboxamide]: 16.3 nM and 79.7 nM.
As for `Cc1ncccc1C(=O)N1CCC(CCCCNC(=O)c2cc3cnccc3[nH]2)CC1` [N-(4-{1-[(2-methylpyridin-3-yl)carbonyl]piperidin-4-yl}butyl)-1H-pyrrolo[3,2-c]pyridine-2-carboxamide], the concentration for half-maximal inhibition (IC50) in the assay with A2780 cells is 1.7 nM; in assay [1] (2.5 mM ATP) it was 21.5 nM.
Take `Cc1cnc(C(=O)N2CCC(CCCCNC(=O)c3cc4ccncc4s3)CC2)cn1` [N-(4-{1-[(5-methylpyrazin-2-yl)carbonyl]piperidin-4-yl}butyl)thieno[2,3-c]pyridine-2-carboxamide]: the half-maximal inhibitory concentration (IC50) with A2780 cells was 100 to 1000 nM; in assay [1] (2.5 mM ATP) it was 68.5 nM.
Turning to `O=C(NCCCCC1CCN(C(=O)c2ccccc2OC(F)(F)F)CC1)c1cc2cnccc2[nH]1` [N-[4-(1-{[2-(trifluoromethoxy)phenyl]carbonyl}piperidin-4-yl)butyl]-1H-pyrrolo[3,2-c]pyridine-2-carboxamide], the IC50 in the assay on A2780 cells amounted to 1.3 nM; in assay [1] (2.5 mM ATP) it was 20.5 nM.
The matching figures for `O=C(NCCCCCCOc1ccc(Cl)cc1)c1ccc2ncccc2c1` [N-[6-(4-chlorophenoxy)hexyl]quinoline-6-carboxamide]: 9890 nM and 25.9 nM.
Take `Cc1ncsc1C(=O)N1CCC(CCCCNC(=O)c2cc3ccncc3s2)CC1` [N-(4-{1-[(4-methyl-1,3-thiazol-5-yl)carbonyl]piperidin-4-yl}butyl)thieno[2,3-c]pyridine-2-carboxamide]: the IC50 with A2780 cells is 0.8 nM; in assay [1] (2.5 mM ATP) it was 5.3 nM.
The matching figures for `CCOc1ccccc1C(=O)N1CCC(CCCCNC(=O)c2cc3ccncc3s2)CC1` [N-(4-{1-[(2-ethoxyphenyl)carbonyl]piperidin-4-yl}butyl)thieno[2,3-c]pyridine-2-carboxamide]: 0.6 nM and 4 nM.
As to `COc1ccc(OC)c(C(=O)N2CCC(CCCCNC(=O)c3cc4cnccc4[nH]3)CC2)c1` [N-(4-{1-[(2,5-dimethoxyphenyl)carbonyl]piperidin-4-yl}butyl)-1H-pyrrolo[3,2-c]pyridine-2-carboxamide], the results for the half-maximal inhibitory concentration (IC50) (in the assay with A2780 cells; in assay [1] (2.5 mM ATP)) were 2.2 nM and 15.5 nM, respectively.
The matching figures for `O=C(NCCCCC1CCN(C(=O)c2ccc(OC(F)(F)F)cc2)CC1)c1cc2cnccc2[nH]1` [N-[4-(1-{[4-(trifluoromethoxy)phenyl]carbonyl}piperidin-4-yl)butyl]-1H-pyrrolo[3,2-c]pyridine-2-carboxamide]: 12.7 nM and 145 nM.
Regarding `Cc1cnc(C(=O)N2CCC(CCCCNC(=O)c3ccc4nccn4c3)CC2)cn1` [N-(4-{1-[(5-methylpyrazin-2-yl)carbonyl]piperidin-4-yl}butyl)imidazo[1,2-a]pyridine-6-carboxamide], the IC50 with A2780 cells is 66.7 nM; in assay [1] (2.5 mM ATP) it was 10.9 nM.
Turning to `CC(C)Oc1ccc(C(=O)N2CCC(CCCCNC(=O)c3cc4ccncc4s3)CC2)cc1` [N-[4-(1-{[4-(propan-2-yloxy)phenyl]carbonyl}piperidin-4-yl)butyl]thieno[2,3-c]pyridine-2-carboxamide], the IC50 in the assay on A2780 cells is 100 to 1000 nM; in assay [1] (2.5 mM ATP), 40 nM.
The matching figures for `COc1ccc(C(=O)N2CCC(CCCCNC(=O)c3ccc4nccn4c3)CC2)cc1F` [N-(4-{1-[(3-fluoro-4-methoxyphenyl)carbonyl]piperidin-4-yl}butyl)imidazo[1,2-a]pyridine-6-carboxamide]: 65.2 nM and 20.2 nM.
`O=C(NCCCCC1CCN(C(=O)c2ccccc2F)CC1)c1ccc2nccn2c1` [N-(4-{1-[(2-fluorophenyl)carbonyl]piperidin-4-yl}butyl)imidazo[1,2-a]pyridine-6-carboxamide]: the half-maximal inhibitory concentration (IC50) in the assay with A2780 cells is 0.5 nM; in assay [1] (2.5 mM ATP) it was 3.8 nM.
The corresponding values for `O=C(NCCCCC1CCN(C(=O)c2c(F)cccc2F)CC1)c1ccc2nccn2c1` [N-(4-{1-[(2,6-difluorophenyl)carbonyl]piperidin-4-yl}butyl)imidazo[1,2-a]pyridine-6-carboxamide] are 1.2 nM and 4.7 nM.
The matching figures for `O=C(NCCCCC1CCN(C(=O)c2cc(Cl)ccc2Cl)CC1)c1cc2ccncc2s1` [N-(4-{1-[(2,5-dichlorophenyl)carbonyl]piperidin-4-yl}butyl)thieno[2,3-c]pyridine-2-carboxamide]: 7.1 nM and 16 nM.
